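Test compounds were applied to cells in 96-well plates for 48 hours at 5 doses. TGI: total growth inhibition.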

Test systems include HOP-62 NSCLC; OVCAR-5 ovarian; SN12C renal; IGROV1 ovarian; MALME-3M melanoma; SNB-75 CNS; CCRF-CEM leukemia; SNB-19 CNS; UACC-257 melanoma; TK-10 renal; HL-60(TB) leukemia; OVCAR-3 ovarian; SK-OV-3 ovarian; OVCAR-8 ovarian; COLO 205 colon; HCT-15 colon; DU-145 prostate; HS 578T breast; MDA-MB-231 breast; MDA-N.
Common to all, as to experiment: NCI-60 cell line screen, 48 h

`O=C1C(Cl)N(c2cccc([N+](=O)[O-])c2)C1c1c[nH]c2ccccc12` (centres undefined): the TGI in the assay on HOP-62 NSCLC is 33.6 µM; with OVCAR-5 ovarian, 37.4 µM; in the assay on SN12C renal it was > 100 µM; with IGROV1 ovarian, 69.8 µM; with MALME-3M melanoma, 14.1 µM; in the assay with SNB-75 CNS, 47.2 µM. The TGI in the assay with CCRF-CEM leukemia was 65.7 µM; in the assay with SNB-19 CNS, 57.8 µM; in the assay on UACC-257 melanoma, 49 µM; with TK-10 renal, 59.4 µM; in the assay with HL-60(TB) leukemia, > 100 µM; with OVCAR-3 ovarian, 54.8 µM. For the same compound, the results for the TGI in the assay on SK-OV-3 ovarian, in the assay on OVCAR-8 ovarian and with COLO 205 colon were 38 µM, 60.4 µM and 41.8 µM, respectively.

Take `COC(=O)C1=C(OC(=O)/C=C/c2ccc(Cl)cc2)C(C(=O)OC)[C@@]2(O)[C@@H](C(=O)OC)[C@H](C)C[C@@H]1[C@@H]2C(=O)OC` (some centres undefined): the TGI is 57 µM with HCT-15 colon; > 100 µM in the assay with HOP-62 NSCLC; 81.7 µM in the assay with OVCAR-5 ovarian; > 100 µM with DU-145 prostate; 45.7 µM with SN12C renal; 23.1 µM with IGROV1 ovarian. Moreover, the TGI with MALME-3M melanoma was 38.2 µM; in the assay on SNB-75 CNS it was > 100 µM; with CCRF-CEM leukemia, 64.8 µM; with SNB-19 CNS, > 100 µM; with UACC-257 melanoma, > 100 µM; in the assay with HS 578T breast, 15.5 µM. In addition, the TGI is 64.9 µM with MDA-MB-231 breast; > 100 µM in the assay on TK-10 renal; 29.5 µM in the assay on MDA-N; 36.1 µM with HL-60(TB) leukemia; > 100 µM with OVCAR-3 ovarian; > 100 µM in the assay on SK-OV-3 ovarian. Also, the TGI with OVCAR-8 ovarian worked out at 41.6 µM; with COLO 205 colon it was 40.7 µM.

In the case of `NC12CCC(CC1=O)C2` (centres undefined), the TGI in the assay on HCT-15 colon, in the assay with HOP-62 NSCLC, in the assay on OVCAR-5 ovarian, in the assay on DU-145 prostate, with SN12C renal and in the assay on IGROV1 ovarian was > 100 µM throughout. In addition, the TGI in the assay with MALME-3M melanoma, in the assay on SNB-75 CNS, in the assay with CCRF-CEM leukemia, with UACC-257 melanoma, in the assay with HS 578T breast and with MDA-MB-231 breast was > 100 µM in each case. In addition, the TGI in the assay on TK-10 renal, in the assay on MDA-N, in the assay with HL-60(TB) leukemia, with OVCAR-3 ovarian, in the assay with SK-OV-3 ovarian and with OVCAR-8 ovarian was > 100 µM each time. Besides, in the assay on COLO 205 colon, the TGI was > 100 µM.

These data come from PubChem BioAssay (NCI).
